Molecules are shown by their SMILES. Counter-ions that a name gives are not always drawn.

What is called IC50 is the point on the concentration scale where inhibition reaches its midpoint. Usually inhibition stands for the share of the control response that was lost under treatment.

For one experiment, the target named is T1, rat NaPi-2b (Rattus norvegicus, UniProt Q9JJ09).
T1 construct: expressed in transfected cells; host or cells: Xenopus oocytes injected with cRNA
T1 sequence (Q9JJ09 1-695): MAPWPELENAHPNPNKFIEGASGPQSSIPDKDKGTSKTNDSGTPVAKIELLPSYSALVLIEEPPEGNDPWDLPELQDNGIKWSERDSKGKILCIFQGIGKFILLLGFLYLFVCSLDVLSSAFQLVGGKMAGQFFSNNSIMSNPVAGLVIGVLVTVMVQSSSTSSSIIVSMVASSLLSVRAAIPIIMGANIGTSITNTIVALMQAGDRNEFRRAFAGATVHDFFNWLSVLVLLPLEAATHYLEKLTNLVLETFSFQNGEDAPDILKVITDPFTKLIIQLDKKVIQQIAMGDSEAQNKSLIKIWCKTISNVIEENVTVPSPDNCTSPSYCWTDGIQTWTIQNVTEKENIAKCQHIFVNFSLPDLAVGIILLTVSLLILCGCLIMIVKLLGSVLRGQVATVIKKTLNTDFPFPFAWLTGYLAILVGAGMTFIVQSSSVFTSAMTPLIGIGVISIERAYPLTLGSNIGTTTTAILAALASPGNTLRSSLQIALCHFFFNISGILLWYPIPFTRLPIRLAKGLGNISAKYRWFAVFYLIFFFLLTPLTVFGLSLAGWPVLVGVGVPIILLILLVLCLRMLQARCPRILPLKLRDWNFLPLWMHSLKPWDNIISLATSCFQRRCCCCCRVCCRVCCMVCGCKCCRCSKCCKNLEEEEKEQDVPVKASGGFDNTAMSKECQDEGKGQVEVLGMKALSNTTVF
Briefly: Sodium-dependent phosphate uptake of Xenopus oocytes which expressed NaPi-2b (32P). The format is cell-based. The following applies: Xenopus oocytes expressing rat NaPi-2b, 32P radioactive phosphorus; read-out: IC50 (phosphate uptake inhibitory activity). The procedure, abridged:
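Rat NaPi-2b cloned from small-intestine cDNA; cRNA injected into Xenopus oocytes, expression for 2 days. Phosphate uptake inhibition measured with 32P; percent inhibition at 300 μM and 100 μM read from the same inhibition curve.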
Consider `Cc1ccc(/C=N/NC(=O)c2c(C)csc2NC(=O)c2cccc(CN3CCN(CCO)CC3)c2)cc1` [Compound 576, 3-[4-(2-Hydroxy-ethyl)-piperazin-1-ylmethyl]-N-[4-methyl-3-(4-methyl-benzylidene-hydrazinocarbonyl)-thiophen-2-yl]-benzamide], for which the IC50 is < 3 µM.

`O=C(Nc1ccc(Cl)cc1C(=O)N/N=C/c1ccc(Cl)c(C(F)(F)F)c1)c1cccc(CS(=O)(=O)Cc2ccco2)c1` [Compound 688, N-[4-Chloro-2-(4-chloro-3-trifluoromethyl-benzylidene-hydrazinocarbonyl)-phenyl]-3-(furan-2-ylmethanesulfonylmethyl)-benzamide]: the IC50 was < 3 µM.

With `Cc1csc(NC(=O)c2cccc(CN3CCC(CO)CC3)c2)c1C(=O)N/N=C/c1ccc(Cl)c(C(F)(F)F)c1` [Compound 603, N-[3-(4-Chloro-3-trifluoromethyl-benzylidene-hydrazinocarbonyl)-4-methyl-thiophen-2-yl]-3-(4-hydroxymethyl-piperidin-1-ylmethyl)-benzamide], the IC50 was < 3 µM.

`O=C(Nc1ccc(Br)cc1C(=O)N/N=C/c1cccc(Cl)c1)c1ccc(F)cc1` [Compound 107, N-[4-Bromo-2-(3-chloro-benzylidene-hydrazinocarbonyl)-phenyl]-4-fluoro-benzamide]: the IC50 stood at 1.08 µM.

Consider `Cc1ccc(/C=N/NC(=O)c2cc(Cl)ccc2NC(=O)c2ccccn2)cc1C` [Compound 363, Pyridin-2-carboxylic acid [4-chloro-2-(3,4-dimethyl-benzylidene-hydrazinocarbonyl)-phenyl]-amide], for which the IC50 is < 1 µM.

As to `Cc1ccc(/C=N/NC(=O)c2cc(I)ccc2NC(=O)c2cccc(CN3CCC(N4CCCCC4)CC3)c2)cc1` [Compound 485, 3-[1,4′]Bipiperidinyl-1′-ylmethyl-N-[4-iodo-2-(4-methyl-benzylidene-hydrazinocarbonyl)-phenyl]-benzamide], the IC50 was < 3 µM.

For `CCN(CC)CCN(Cc1cccc(C(=O)Nc2sc3c(c2C(=O)N/N=C/c2cccc(F)c2)CCCC3)c1)C(C)=O` [Compound 655, 3-{[Acetyl-(2-diethylamino-ethyl)-amino]-methyl}-N-[3-(3-fluoro-benzylidene-hydrazinocarbonyl)-4,5,6,7-tetrahydro-benzo[b]-thiophen-2-yl]-benzamide], the IC50 was found to be 1.58 µM.

Turning to `CCN(CC)CCN(CCN(CC)CC)Cc1cccc(C(=O)Nc2ccc(N3CCCCC3)cc2C(=O)N/N=C/c2cccc(F)c2)c1` [Compound 908, 3-{[Bis-(2-diethylamino-ethyl)-amino]-methyl}-N-[2-(3-fluoro-benzylidene-hydrazinocarbonyl)-4-piperidin-1-yl-phenyl]-benzamide], the IC50 is 13.2 µM.

On to `Cc1ccc(/C=N/NC(=O)c2c(C)csc2NC(=O)c2cccc(CN3CCN(c4ncccn4)CC3)c2)cc1C` [Compound 826, N-[3-(3,4-Dimethyl-benzylidene-hydrazinocarbonyl)-4-methyl-thiophen-2-yl]-3-(4-pyrimidin-2-yl-piperazin-1-ylmethyl)-benzamide], for which the IC50 worked out at 4.44 µM.

`O=C(Nc1ccc(N2CCSCC2)cc1C(=O)N/N=C/c1ccc(Cl)c(C(F)(F)F)c1)c1cccc(CSCCO)c1` [Compound 927, N-[2-(4-Chloro-3-trifluoromethyl-benzylidene-hydrazinocarbonyl)-4-thiomorpholin-4-yl-phenyl]-3-(2-hydroxy-ethylsulfanylmethyl)-benzamide]: the half-maximal inhibitory concentration (IC50) is < 1 µM.

`CCN(CC)CCN(CCN(CC)CC)Cc1cccc(C(=O)Nc2ccc(N3CCCCC3)cc2C(=O)N/N=C/c2ccc(F)cc2)c1` [Compound 907, 3-{[Bis-(2-diethylamino-ethyl)-amino]-methyl}-N-[2-(4-fluoro-benzylidene-hydrazinocarbonyl)-4-piperidin-1-yl-phenyl]-benzamide]: the IC50 stood at 6.75 µM.

As to `CCN(CC)CCN(C)Cc1cccc(C(=O)Nc2scc(C)c2C(=O)N/N=C/c2ccc(Cl)c(C(F)(F)F)c2)c1` [Compound 567, N-[3-(4-Chloro-3-trifluoromethyl-benzylidene-hydrazinocarbonyl)-4-methyl-thiophen-2-yl]-3-{[(2-diethylamino-ethyl)-methyl-amino]-methyl}-benzamide], the IC50 is < 1 µM.

In the case of `CCN(CC)CCNCc1cccc(C(=O)Nc2scc(C)c2C(=O)N/N=C/c2cccc(F)c2)c1` [Compound 584, 3-[(2-Diethylamino-ethylamino)-methyl]-N-[3-(3-fluoro-benzylidene-hydrazinocarbonyl)-4-methyl-thiophen-2-yl]-benzamide], the IC50 is < 3 µM.

Turning to `CC(O)CN(Cc1cccc(C(=O)Nc2ccc(F)cc2C(=O)N/N=C/c2ccc(Cl)c(C(F)(F)F)c2)c1)CC(C)O` (centres unmarked) [Compound 853, 3-{[Bis-(2-hydroxy-propyl)-amino]-methyl}-N-[2-(4-chloro-3-trifluoromethyl-benzylidene-hydrazinocarbonyl)-4-fluoro-phenyl]-benzamide; hydrochloride], the IC50 is 2.14 µM.

In the case of `CCN(CC)CCN(C)Cc1cccc(C(=O)Nc2cc(OCCOC)c(OCCOC)cc2C(=O)N/N=C/c2ccc(C)c(C)c2)c1` [Compound 1030, 3-{[(2-Diethylamino-ethyl)-methyl-amino]-methyl}-N-[2-(3,4-dimethyl-benzylidene-hydrazinocarbonyl)-4,5-bis-(2-methoxy-ethoxy)-phenyl]-benzamide], the IC50 is 14.2 µM.

Regarding `COc1ccc(NC(=O)c2ccc(OC)c(OC)c2)c(C(=O)N/N=C/c2ccc(C)c(C)c2)c1` [Compound 145, N-[2-(3,4-Dimethyl-benzylidene-hydrazinocarbonyl)-4-methoxy-phenyl]-3,4-dimethoxy-benzamide], the IC50 was 3.82 µM.

For `Cc1ccc(/C=N/NC(=O)c2cc(Br)ccc2NC(=O)c2ccc(CN3CCN(CC(=O)N4CCOCC4)CC3)cc2)cc1` [Compound 728, N-[4-Bromo-2-(4-methyl-benzylidene-hydrazinocarbonyl)-phenyl]-4-[4-(2-morpholin-4-yl-2-oxo-ethyl)-piperazin-1-ylmethyl]-benzamide], the IC50 turned out to be 20.3 µM.

Take `O=C(Nc1ccc(N2CCCC(C(=O)O)C2)cc1C(=O)N/N=C/c1ccc(Cl)c(C(F)(F)F)c1)c1cccc(CSCCO)c1` (centres unmarked) [Compound 925, 1-{3-(4-Chloro-3-trifluoromethyl-benzylidene-hydrazinocarbonyl)-4-[3-(2-hydroxy-ethylsulfanylmethyl)-benzoylamino]-phenyl}-piperidine-3-carboxylic acid]: the IC50 worked out at 25.5 µM.

Consider `COc1ccc(/C=N/NC(=O)c2c(NC(=O)c3cccc(CN4CCC(N5CCCCC5)CC4)c3)sc3c2CCCC3)cc1` [Compound 620, 3-[1,4′]Bipiperidinyl-1′-ylmethyl-N-[3-(4-methoxy-benzylidene-hydrazinocarbonyl)-4,5,6,7-tetrahydro-benzo[b]thiophen-2-yl]-benzamide], for which the IC50 came out at 3.58 µM.

With `O=C(Nc1ccc(Cl)cc1C(=O)N/N=C/c1cccc(F)c1)c1ccccn1` [Compound 359, Pyridin-2-carboxylic acid [4-chloro-2-(3-fluoro-benzylidene-hydrazinocarbonyl)-phenyl]-amide], the IC50 turned out to be 7.1 µM.

As to `Cc1ccc(/C=N/NC(=O)c2ccsc2NC(=O)c2cccc(CSCCCO)c2)cc1` [Compound 659, 3-(3-Hydroxy-propylsulfanylmethyl)-N-[3-(4-methyl-benzylidene-hydrazinocarbonyl)-thiophen-2-yl]-benzamide], the concentration for half-maximal inhibition (IC50) worked out at 12.4 µM.

In the case of `O=C(Nc1sc2c(c1C(=O)N/N=C/c1ccc(Cl)c(C(F)(F)F)c1)CCCC2)c1cccc(CSCCCO)c1` [Compound 608, N-[3-(4-Chloro-3-trifluoromethyl-benzylidene-hydrazinocarbonyl)-4,5,6,7-tetrahydro-benzo[b]thiophen-2-yl]-3-(3-hydroxy-propylsulfanylmethyl)-benzamide], the concentration for half-maximal inhibition (IC50) was < 0.3 µM.

On to `O=C(Nc1ccc(Br)cc1C(=O)N/N=C/c1cccc(F)c1)c1ccccn1` [Compound 495, Pyridin-2-carboxylic acid[4-bromo-2-(3-fluoro-benzylidene-hydrazinocarbonyl)-phenyl]-amide], for which the IC50 was 0.35 µM.

Staying with this experiment, now noted: phosphate uptake, oocytes expressing rat NaPi-2b; 300 μM, determined from inhibition curve.
`CCOCCN(CCOCC)Cc1ccc(C(=O)Nc2ccc(Br)cc2C(=O)N/N=C/c2cccc(OC)c2)cc1` [Compound 740, 4-{[Bis-(2-ethoxy-ethyl)-amino]-methyl}-N-[4-bromo-2-(3-methoxy-benzylidene-hydrazinocarbonyl)-phenyl]-benzamide] yielded an inhibition at 300 µM of 58.5%.

Consider `COc1ccc(C(=O)Nc2ccccc2C(=O)N/N=C/c2ccc(Br)cc2)cc1OC` [Compound 234, N-[2-(4-Bromo-benzylidene-hydrazinocarbonyl)-phenyl]-3,4-dimethoxy-benzamide], for which testing at 300 µM gave an inhibition of 37.9%.

In turn, `COc1cccc(/C=N/NC(=O)c2cc(Br)ccc2NC(=O)c2ccc(CNCCN3CCOCC3)cc2)c1` [Compound 716, N-[4-Bromo-2-(3-methoxy-benzylidene-hydrazinocarbonyl)-phenyl]-4-[(2-morpholin-4-yl-ethylamino)-methyl]-benzamide] had an inhibition at 300 µM of 85.8%.

These data come from US8134015B2, “Compound inhibiting in vivo phosphorous transport and medicine containing the same” (Kyowa Hakko Kirin Co., Ltd., priority 2003, dated 2012).
